From ChEMBL document CHEMBL3400115, “Chemical constituents from Kandelia candel with their inhibitory effects on pro-inflammatory cytokines production in LPS-stimulated bone marrow-derived dendritic cells (BMDCs)” (Bioorg Med Chem Lett, 2015)

How the values were obtained:
Format in all cases: functional
[1] = Inhibition of LPS-induced IL-6 production in wild-type C57BL/6 mouse BMDC pretreated with compound for 1 hr before LPS treatment measured 16 hrs by ELISA
[2] = Inhibition of LPS-induced TNF-alpha production in wild-type C57BL/6 mouse BMDC pretreated with compound for 1 hr before LPS treatment measured 16 hrs by ELISA
[3] = Inhibition of LPS-induced IL-12 p40 production in wild-type C57BL/6 mouse BMDC pretreated with compound for 1 hr before LPS treatment measured 16 hrs by ELISA

SMILES | IC50 [1] | IC50 [2] | IC50 [3]
CC1=C(CC[C@H](C)O)C(C)(C)C[C@H](O[C@@H]2O[C@H](CO)[C@@H](O)[C@H](O)[C@H]2O)C1 | > 50 µM | > 50 µM | > 50 µM
COc1cc(-c2oc3cc(O)cc(O)c3c(=O)c2O[C@@H]2O[C@H](CO[C@@H]3O[C@@H](C)[C@H](O)[C@@H](O)[C@H]3O)[C@@H](O)[C@H](O)[C@H]2O)ccc1O [NARCISSIN] | > 50 µM | > 50 µM | > 50 µM
O=c1c(O[C@@H]2O[C@H](CO)[C@@H](O)[C@H](O)[C@H]2O)c(-c2ccc(O)c(O)c2)oc2cc(O)cc(O)c12 [ISOQUERCETIN] | > 50 µM | > 50 µM | > 50 µM
COc1cc([C@@H](O)[C@H](O)CO)cc(OC)c1O (relative stereo) | > 50 µM | 28.7 µM | > 50 µM
O=C(O)/C=C/c1ccc(O)c(O)c1 [CAFFEIC ACID] | > 50 µM | > 50 µM | > 50 µM
COc1cc([C@@H](O)[C@@H](O)CO)cc(OC)c1O (relative stereo) | > 50 µM | > 50 µM | > 50 µM
CC1=CC(=O)CC(C)(C)[C@H]1CC[C@H](C)O[C@@H]1O[C@H](CO)[C@@H](O)[C@H](O)[C@H]1O | > 50 µM | > 50 µM | > 50 µM
C[C@@H]1O[C@@H](Oc2c(-c3ccc(O)cc3)oc3cc(O)cc(O)c3c2=O)[C@H](O)[C@H](O)[C@H]1O [AFZELIN] | > 50 µM | > 50 µM | > 50 µM
COc1cc([C@H]2OC[C@H]3[C@@H]2CO[C@@H]3c2cc(OC)c(O[C@@H]3O[C@H](CO)[C@@H](O)[C@H](O)[C@H]3O)c(OC)c2)cc(OC)c1O | > 50 µM | > 50 µM | > 50 µM
O=C(O)c1ccc(O)c(O)c1 [PROTOCATECHUIC ACID] | > 50 µM | > 50 µM | > 50 µM
C[C@@H]1O[C@@H](OC[C@H]2O[C@@H](Oc3c(-c4ccc(O)c(O)c4)oc4cc(O)cc(O)c4c3=O)[C@H](O)[C@@H](O)[C@@H]2O)[C@H](O)[C@H](O)[C@H]1O [RUTIN] | > 50 µM | > 50 µM | > 50 µM
Oc1cc(O)c2c(c1)O[C@H](c1ccc(O)c(O)c1)[C@@H](O)C2 [CIANIDANOL] | > 50 µM | > 50 µM | > 50 µM
Oc1cc(O)c2c(c1)O[C@H](c1ccc(O)c(O)c1)[C@H](O)C2 [(-)-EPICATECHIN] | > 50 µM | > 50 µM | > 50 µM
COc1cc(-c2oc3cc(O)cc(O)c3c(=O)c2O[C@@H]2O[C@H](CO)[C@@H](O)[C@H](O)[C@H]2O)ccc1O | > 50 µM | > 50 µM | > 50 µM
CC(C)(O)[C@H]1CC[C@@]2(C)[C@@H]3C[C@@H](O[C@@H]4O[C@H](CO)[C@@H](O)[C@H](O)[C@H]4O)[C@]2(C)[C@H](O)C31 | > 50 µM | > 50 µM | > 50 µM
CC1=CC(=O)CC(C)(C)[C@@]1(O)/C=C/[C@H](C)O[C@@H]1O[C@H](CO)[C@@H](O)[C@H](O)[C@H]1O [6S,9S-ROSEOSIDE] | 0.07 µM | 49.9 µM | > 50 µM
O=C(/C=C/c1ccc(O)c(O)c1)O[C@@H]1C[C@](O)(C(=O)O)C[C@@H](O)[C@H]1O [CHLOROGENIC ACID] | > 50 µM | > 50 µM | > 50 µM
